Data: ChEMBL document CHEMBL1124592, “In vitro metabolic transformations of vinblastine: oxidations catalyzed by human ceruloplasmin” (J Med Chem, 1989)
Values after ≈ are worked out from the molar mass of the structure shown.

System: CCRF-CEM
Test: Inhibition against […]-T-Cell leukemic cell line
Assay type: functional, cell-based
Details: Homo sapiens

IC50 | Structure (SMILES)
14 µg/mL (≈ 17 µM) | CCC(=O)CC1CN(C=O)CCc2c([nH]c3ccccc23)[C@@](C(=O)OC)(c2cc3c(cc2OC)N(C)C2C4(C(=O)OC)OC5C=CN6CCC32C6[C@]5(CC)C4OC(C)=O)C1 (stereo not given in full)
7.7 µg/mL (≈ 9.33 µM) | CCC(=O)C[C@@H]1CN(C=O)CCc2c([nH]c3ccccc23)[C@@](C(=O)OC)(c2cc3c(cc2OC)N(C)[C@H]2[C@@](O)(C(=O)OC)[C@H](OC(C)=O)[C@]4(CC)C=CCN5CC[C@]32[C@@H]54)C1
0.1 µg/mL (≈ 0.123 µM) | CC[C@]1(O)C[C@@H]2CN(CCc3c([nH]c4ccccc34)[C@@](C(=O)OC)(c3cc4c(cc3OC)N(C)[C@H]3[C@@](O)(C(=O)OC)[C@H](OC(C)=O)[C@]5(CC)C=CCN6CC[C@]43[C@@H]65)C2)C1 [VINBLASTINE]
0.025 µg/mL (≈ 0.0303 µM) | CC[C@]1(O)C[C@H]2CN(CCc3c([nH]c4ccccc34)[C@@](C(=O)OC)(c3cc4c(cc3OC)N(C=O)[C@H]3[C@@](O)(C(=O)OC)[C@H](OC(C)=O)[C@]5(CC)C=CCN6CC[C@]43[C@@H]65)C2)C1 [VINCRISTINE]

Structure (SMILES) | IC50
CC[C@]12CN3CCc4c([nH]c5ccccc45)[C@@](C(=O)OC)(c4cc5c(cc4OC)N(C)[C@H]4[C@@](O)(C(=O)OC)[C@H](OC(C)=O)[C@]6(CC)C=CCN7CC[C@]54[C@@H]76)C[C@@H](C3)[C@H]1O2.CC[C@]12CN3CCc4c([nH]c5ccccc45)[C@@](C(=O)OC)(c4cc5c(cc4OC)N(C)[C@H]4[C@@](O)(C(=O)OC)[C@H](OC(C)=O)[C@]6(CC)C=CCN7CC[C@]54[C@@H]76)C[C@@H](C3)[C@H]1O2.O=S(=O)(O)O [VINLEUROSINE SULFATE] | 0.4 µg/mL
